Test results from patent US20060093578A1, “Method and composition for treating multiple sclerosis” (Kyorin Pharmaceutical Co., Ltd., priority 2004, published 2006).

How the values were obtained:
[1] = system: peripheral blood mononuclear cells; details: with IFNβ, synergistically; PBMC from patients with active MS; clinical trial; cited from earlier work
[2] = system: IL-12 p70 production by microglia; assay: IL-12 p70 production by LPS + IFNγ-stimulated microglia (ELISA); type: cell-based, C57BL/6J mice; details: for IL-12 production by microglia: LPS and IFNγ stimulation, graded doses (FIG. 1, FIG. 9A); for IL-12 p70: mean ± SD (n = 9)
Description: Samples used for the experiments were prepared as described below. […] The cultures were maintained with Dulbecco's modified Eagle's minimum essential medium supplemented with 10% fetal calf serum, 5 μg/ml bovine insulin, and 0.2% glucose.
The supernatant was then collected and stored at −70° C. until assessed. From the remaining cells, total RNA was extracted, following the guanidinium thiocyanate method (RNeasy Mini Kit;QIAGEN). The cDNA encoding mouse TNFα, IL-1β, IL-6, iNOS (inducible nitric oxide synthetase), and IL-12, was generated by reverse transcription-polymerase chain reaction (RT-PCR) using Superscript II (INVITROGEN), and Ampli Taq DNA polymerase (APPLIED BIOSYSTEMS) with the specific primers shown in Table 1.
Cytokine production was measured with an ELISA kit specific for IL1, IL-6, TNFα, and IL-12 p70 (TECHNE Corp. MN). NO production was determined by Griess reaction. Briefly, a 50 μl aliquot of supernatants were mixed with an equal volume of Griess reagent (0.1% N-ethylenediarnine dihydrochloride, 1% sulfanilamide, and 2.5% phosphoric acid) and incubated for 15 minutes at room temperature, and the absorbance was read at 540 nm on a microtiter plate reader. Nitrite concentrations were calculated from a standard curve of NaNO2 (Yoshikawa M, Suzumura A, Tamaru T, et al. “Effects of phosphodiesterase inhibitors on microglia.” Multiple Scler 1999;5: 126-133, the contents of which are hereby incorporated by reference in their entirety).

[3] = microglia + LPS (1 μg/mL) + IFNγ (1 ng/mL) + IFNβ 10^2 U/mL, agent 1 μM
[4] = microglia + LPS (1 μg/mL) + IFNγ (1 ng/mL) + IFNβ 10^2 U/mL, agent 10 μM
[5] = microglia + LPS (1 μg/mL) + IFNγ (1 ng/mL) + IFNβ 10^2 U/mL, agent 100 μM, detection limit 7 pg/mL
[6] = microglia + LPS (1 μg/mL) + IFNγ (1 ng/mL), agent 1 μM, stimulated control 118 ± 13
[7] = microglia + LPS (1 μg/mL) + IFNγ (1 ng/mL), agent 10 μM, stimulated control 118 ± 13
[8] = microglia + LPS (1 μg/mL) + IFNγ (1 ng/mL), agent 100 μM, detection limit 7 pg/mL

Row | Structure (SMILES) | anti-inflammatory cytokine IL-10 [1] | production of inflammatory cytokines [1] | IL-12 production by microglia [2] | IL-12 p70 [2, 3] [pg/mL] | IL-12 p70 [2, 4] [pg/mL] | IL-12 p70 [2, 5] | IL-12 p70 [2, 6] [pg/mL] | IL-12 p70 [2, 7] [pg/mL] | IL-12 p70 [2, 8]
1 | CC(=O)CCCCn1c(=O)c2c(ncn2C)n(C)c1=O [pentoxifylline] | up-regulate | reduce |  |  |  |  |  |  | 
2 | Cc1[nH]c(=O)c(C#N)cc1-c1ccc2nccn2c1 [Orprinone, orprinone] |  |  | dose-dependently suppressed | 67 ± 14 | 44 ± 7 | 40 ± 9 pg/mL | 107 ± 20 | 88 ± 14 | 32 ± 11 pg/mL
3 | C=C[C@@]1(C)CC(=O)[C@]2(O)[C@@]3(C)[C@@H](O)CCC(C)(C)[C@@H]3[C@H](O)[C@H](OC(C)=O)[C@@]2(C)O1 [forskoline, forskolin] |  |  |  | 47 ± 10 | 34 ± 6 | <7^a** pg/mL |  |  | 
4 | CC(C)C(=O)c1c(C(C)C)nn2ccccc12 [Ibudilast, ibudilast] |  |  |  | 48 ± 11 | 43 ± 6 | <7^a** pg/mL | 53 ± 4 | 48 ± 5 | <7^a* pg/mL
5 | CCCC(=O)Nc1ncnc2c1ncn2[C@@H]1O[C@@H]2COP(=O)(O)O[C@H]2[C@H]1OC(=O)CCC [dbcAMP, dibutyryl cAMP] |  |  | dose-dependently suppressed |  |  |  | 122 ± 23 | 59 ± 18 | 23 ± 8 pg/mL
